This is an account of results in patent publication US8309730B2, “Nonsteroidal compounds useful as modulators of glucocorticoid receptor AP-1 and/or NF-kappab acitivity and use thereof” (Bristol-Myers Squibb Company, priority 2007, dated 2012).

Assay [1] addresses T1, human glucocorticoid receptor (Homo sapiens, UniProt P04150).
T1 construct: purified human recombinant full-length glucocorticoid receptor (2 nM); purchased Invitrogen Part #2893
T1 sequence (P04150 1-777): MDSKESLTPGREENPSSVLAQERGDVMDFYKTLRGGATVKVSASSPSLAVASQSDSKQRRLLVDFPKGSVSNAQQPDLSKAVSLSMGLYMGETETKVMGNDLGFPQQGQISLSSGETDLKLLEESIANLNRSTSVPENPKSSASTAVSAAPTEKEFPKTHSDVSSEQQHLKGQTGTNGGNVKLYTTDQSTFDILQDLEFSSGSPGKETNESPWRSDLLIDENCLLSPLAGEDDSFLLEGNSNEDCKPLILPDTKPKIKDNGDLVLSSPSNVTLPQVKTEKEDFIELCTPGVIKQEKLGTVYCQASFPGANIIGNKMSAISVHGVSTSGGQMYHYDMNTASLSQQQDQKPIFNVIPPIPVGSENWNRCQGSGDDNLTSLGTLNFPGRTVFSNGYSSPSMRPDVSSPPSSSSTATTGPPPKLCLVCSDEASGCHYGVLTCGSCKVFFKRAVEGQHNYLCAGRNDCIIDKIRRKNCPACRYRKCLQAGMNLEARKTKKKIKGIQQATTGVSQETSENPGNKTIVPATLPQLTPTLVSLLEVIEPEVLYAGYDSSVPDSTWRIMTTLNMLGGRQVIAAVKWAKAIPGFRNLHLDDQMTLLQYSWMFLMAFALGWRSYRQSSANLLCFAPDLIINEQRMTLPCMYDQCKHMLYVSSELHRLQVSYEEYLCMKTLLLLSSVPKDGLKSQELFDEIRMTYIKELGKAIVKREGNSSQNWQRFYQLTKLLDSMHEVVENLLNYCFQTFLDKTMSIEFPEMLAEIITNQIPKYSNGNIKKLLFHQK
The assay can be described thus: Glucocorticoid Receptor Binding Assay (I), fluorescence polarization competitor kit. Particulars: purified human recombinant full-length GR, Fluormone GS Red, 2 h room temperature. As for the experimental part:
Briefly, purified human recombinant full-length glucocorticoid receptor (2 nM) was mixed with fluorescently labeled glucocorticoid (1 nM Fluormone GS Red) in the presence or absence of test compound. After two hours incubation at room temperature in the dark, the fluorescence polarization (FP) of the sample was measured. […] Test compounds were analyzed in the concentration range from 8.5E-05 μM to 5 μM.
In general terms: Fluorescence polarisation rises when a labelled molecule tumbles more slowly, as on binding a larger partner.

The subject of assay [2] is AP-1 induced transcriptional activity. Briefly: Cellular Transrepressional Assay (AP-1 luciferase reporter in A549 cells). Format: cell-based. As to conditions: Homo sapiens, A549 cells stably transfected with pAP-1-Luc, 10 ng/ml PMA, 7 hours; for Emax: maximum inhibition, read-out: AP-1 Max % inh (Cellular Transrepression Assay); for EC50: read-out: AP-1 EC50, nM (Cellular Transrepression Assay). How it is done:
To measure the ability of test molecules to inhibit AP-1 induced transcriptional activity we utilized an A549 cell which was stably transfected with a plasmid containing 7×AP-1 DNA binding sites (pAP-1-Luc plasmid, Stratagene Co. La Jolla, Calif.) followed by the gene for luciferase. Cells were activated with 10 ng/ml of phorbol myristic acid (PMA) plus or minus test molecules for 7 hours. After 7 hours a luciferase reagent was added to measure luciferase enzymatic activity in the cell. After a 10 minute incubation of luciferase reagent with cells, luminescence was measured in a TopCount luminescence counter. Repression of AP-1 activity was calculated as the percentage decrease in the signal induced by PMA alone. Test molecules were analyzed in the concentration range from 0.1 nM to 40 μM. EC50 values were determined by using standard curve fitting methods such as Excel fit (Microsoft Co.).

By Ki is commonly meant a dissociation constant, usually derived from enzyme kinetics or from competition with a known ligand. For the molecule `C[C@]12Cn3cnc(-c4ccccc4)c3C=C1CCC[C@@H]2[C@H](O)c1ccccc1` (racemic) [Example 12], the Ki in assay [1] came out at 86.3 nM.
Same read-out and setting: as for `COc1ccc([C@H](O)[C@H]2CCCC3=Cc4c(-c5ccccc5)ncn4C[C@@]32C)cc1` (racemic) [Example 16], the figure is 90.1 nM; as for `COc1ccc([C@@H](O)[C@H]2CCCC3=Cc4c(-c5ccccc5)ncn4C[C@@]32C)cc1` (racemic) [Example 17], 93.4 nM; as for `C=CC[C@H](O)[C@H]1CCCC2=Cc3c(-c4ccccc4)ncn3C[C@@]21C` (racemic) [Example 18], 26.9 nM.
In the case of `C=CC[C@@H](O)[C@H]1CCCC2=Cc3c(-c4ccccc4)ncn3C[C@@]21C` (racemic) [Example 19], the Ki in assay [1] came to 22.3 nM.
The same measure, in the same setting: as for `C[C@]12Cn3cnc(-c4ccccc4)c3C=C1CCC[C@@H]2[C@@H](O)Cc1ccccc1` (racemic) [Example 20], the figure is 18.3 nM.
Still for that read-out and setting: as for `C[C@]12Cn3cnc(-c4ccccc4)c3C=C1CCC[C@@H]2[C@@H](O)C1CCCCC1` (racemic) [Example 21], the figure is 20.2 nM; as for `COc1cccc([C@H](O)[C@H]2CCCC3=Cc4c(-c5ccccc5)ncn4C[C@@]32C)c1` (racemic) [Example 22], 94.4 nM; as for `COc1cccc([C@@H](O)[C@H]2CCCC3=Cc4c(-c5ccccc5)ncn4C[C@@]32C)c1` (racemic) [Example 23], 57.5 nM.
Regarding `C[C@H](O)[C@H]1CCCC2=Cc3c(-c4ccccc4)ncn3C[C@@]21C` (racemic) [Example 24], in assay [1], the inhibition constant Ki stood at 364 nM.
On the same count and under the same terms, as for `C[C@@H](O)[C@H]1CCCC2=Cc3c(-c4ccccc4)ncn3C[C@@]21C` (racemic) [Example 25], the figure is 202 nM.
Still for that read-out and setting: as for `C[C@]12Cn3cnc(-c4ccccc4)c3C=C1CCC[C@@H]2C(=O)c1ccccc1` (racemic) [Example 33], the figure is over 1150 nM.
Still for that read-out and setting: as for `C[C@]12Cn3cnc(-c4ccccc4)c3C=C1CCC[C@@H]2C(=O)c1csc2ccccc12` (racemic) [Example 34], the figure is over 1150 nM; as for `C[C@]12Cn3cnc(-c4ccccc4)c3C=C1CCC[C@@H]2[C@](C)(O)c1ccccc1` (racemic) [Example 35], 6.4 nM; as for `CC[C@@](O)(c1ccccc1)[C@H]1CCCC2=Cc3c(-c4ccccc4)ncn3C[C@@]21C` (racemic) [Example 36], 8.71 nM.
Regarding `CC[C@@](O)(c1csc2ccccc12)[C@H]1CCCC2=Cc3c(-c4ccccc4)ncn3C[C@@]21C` (racemic) [Example 37], the Ki in assay [1] worked out at 209 nM.
In the case of `C[C@]12Cn3cnc(-c4ccccc4)c3C=C1CCC[C@@H]2[C@](O)(c1csc2ccccc12)C(F)(F)F` (racemic) [Example 38], in assay [1], the Ki is 111 nM.
Same read-out and setting: with `CC12Cn3cnc(-c4ccc(F)cc4)c3C=C1CCCC2(O)CCc1ccccc1` (racemic) [Example 102] the figure was 19.7 nM.
On the same count and under the same terms, with `CC12Cn3cnc(-c4ccc(F)cc4)c3C=C1CCCC2(O)c1ccc(Cl)cc1` (racemic) [Example 103] the figure was 216 nM; with `C[C@]12Cn3cnc(-c4ccccc4)c3C=C1CCC[C@@H]2[C@@H](O)c1ccccc1` (single isomer, unassigned) [Example 13], over 1150 nM.
On the same count and under the same terms, as for `C[C@]12Cn3cnc(-c4ccccc4)c3C=C1CCC[C@@H]2[C@@H](O)c1ccccc1` (single isomer, unassigned) [Example 14], the figure is 65 nM.
In the case of `C[C@]12Cn3cnc(-c4ccccc4)c3C=C1CCC[C@@H]2[C@H](O)c1csc2ccccc12` (single isomer, unassigned) [Example 28], in assay [1], the Ki came out at 493 nM.
On to `C[C@]12Cn3cnc(-c4ccccc4)c3C=C1CCC[C@@H]2[C@@H](O)c1csc2ccccc12` (single isomer, unassigned) [Example 30], for which the inhibition constant (Ki) in assay [1] amounted to 22.5 nM.
By EC50 is commonly meant the concentration that produces a half-maximal response. With `C[C@]12Cn3cnc(-c4ccc(F)cc4)c3C=C1CCC[C@@H]2[C@](C)(O)C1CC1` [Example 58], in assay [2], the Emax came out at 35.8% and the EC50 came out at 36.8 nM.
Regarding `Cc1ccc([C@@](C)(O)[C@H]2CCCC3=Cc4c(-c5ccc(F)cc5)ncn4C[C@@]32C)s1` [Example 60], in assay [2], the Emax came to 48.3% and the EC50 came to 31.3 nM.
The matching figures for `Cc1ccsc1[C@@](C)(O)[C@H]1CCCC2=Cc3c(-c4ccc(F)cc4)ncn3C[C@@]21C` [Example 61]: 58.8% and 11.6 nM.
As for `C[C@]12Cn3cnc(-c4ccc(F)cc4)c3C=C1CCC[C@@H]2[C@](C)(O)c1ccc(Cl)s1` [Example 62], in assay [2], the Emax stood at 61.2% and the EC50 is 5.48 nM.
For `CC(C)(C)C[C@@](C)(O)[C@H]1CCCC2=Cc3c(-c4ccc(F)cc4)ncn3C[C@@]21C` [Example 63] the same measures were 47.5% and 31.5 nM.
Take `Cc1ccc([C@@](C)(O)[C@H]2CCCC3=Cc4c(-c5ccc(F)cc5)ncn4C[C@@]32C)cc1` [Example 64]: in assay [2], the Emax is 41.9% and the EC50 turned out to be 4.26 nM.
Turning to `Cc1cccc([C@@](C)(O)[C@H]2CCCC3=Cc4c(-c5ccc(F)cc5)ncn4C[C@@]32C)c1` [Example 65], in assay [2], the Emax is 46.7% and the EC50 was found to be 9.75 nM.
With `Cc1ccccc1[C@@](C)(O)[C@H]1CCCC2=Cc3c(-c4ccc(F)cc4)ncn3C[C@@]21C` [Example 66], in assay [2], the Emax was 42.1% and the EC50 came out at 4.6 nM.
For `C[C@]12Cn3cnc(-c4ccc(F)cc4)c3C=C1CCC[C@@H]2[C@](C)(O)C1CCCCC1` [Example 67] the same measures were 44.3% and 1.99 nM.
Take `CCCC[C@@](C)(O)[C@H]1CCCC2=Cc3c(-c4ccc(F)cc4)ncn3C[C@@]21C` [Example 68]: in assay [2], the Emax turned out to be 40.8% and the EC50 came to 33.9 nM.
For `C[C@]12Cn3cnc(-c4ccc(F)cc4)c3C=C1CCC[C@@H]2[C@](C)(O)c1ccccc1` [Example 71] the same measures were 32.5% and 3.02 nM.
The matching figures for `Cc1ccc([C@@](C)(O)[C@H]2CCCC3=Cc4c(-c5ccc(F)cc5)ncn4C[C@@]32C)cc1F` [Example 74]: 34.5% and 14.3 nM.
For `CCc1ccccc1[C@@](C)(O)[C@H]1CCCC2=Cc3c(-c4ccc(F)cc4)ncn3C[C@@]21C` [Example 75] the same measures were 47.1% and 41.6 nM.
For `C[C@]12Cn3cnc(-c4ccc(F)cc4)c3C=C1CCC[C@@H]2[C@](C)(O)c1cccc(C#N)c1` [Example 83], in assay [2], the Emax came to 35.6% and the EC50 was found to be 19.2 nM.
For `CSc1cccc([C@@](C)(O)[C@H]2CCCC3=Cc4c(-c5ccc(F)cc5)ncn4C[C@@]32C)c1` [Example 89] the same measures were 45.3% and 20.8 nM.
The matching figures for `COC(=O)c1ccc([C@@](C)(O)[C@H]2CCCC3=Cc4c(-c5ccc(F)cc5)ncn4C[C@@]32C)s1` [Example 92]: 47.4% and 24.7 nM.
`C[C@]12Cn3cnc(-c4ccc(F)cc4)c3C=C1CCC[C@@H]2[C@](C)(O)C1CCOCC1` [Example 96]: in assay [2], the Emax stood at 42% and the EC50 is 56.5 nM.
The matching figures for `COc1cccc([C@@](C)(O)[C@H]2CCCC3=Cc4c(-c5ccc(F)cc5)ncn4C[C@@]32C)c1` [Example 97]: 39.6% and 95 nM.
With `C[C@]12Cn3cnc(-c4ccc(F)cc4)c3C=C1CCC[C@@H]2[C@](C)(O)c1ccc(C(=O)O)s1` [Example 99], in assay [2], the Emax was found to be 43.9% and the EC50 turned out to be 472 nM.
For the molecule `CNC(=O)c1ccc([C@@](C)(O)[C@H]2CCCC3=Cc4c(-c5ccc(F)cc5)ncn4C[C@@]32C)s1` [Example 100], in assay [2], the Emax was determined as 30.7% and the half-maximal effective concentration (EC50) is 573 nM.
Take `CC1(C)COC2(CCCC3=Cc4c(-c5ccc(F)cc5)ncn4CC32C)OC1` (centres unmarked) [Example 104, 1′-(4-Fluorophenyl)-5,5,5a′-trimethyl-5a′,7′,8′,9′-tetrahydro-5′H-spiro[[1,3]dioxane-2,6′-imidazo[1,5-b]isoquinoline]]: in assay [2], the Emax came out at 32.4% and the EC50 was found to be 877 nM.
